Laboratory results as given in patent publication US20240409536A1, “COMPOUNDS AND METHODS FOR MODULATING SPLICING” (REMIX THERAPEUTICS INC., priority 2021, published 2024).
pIC50: −log10 of the molar value.

Tests used:
Target C = assay: HiBiT protein abundance assay, Target C (K562 HiBiT knock-in cells); assay type: cell-based, human; settings: 24 hours
Experimental: (§1) • Promega Nano-Glo HiBiT Lytic Detection System (cat #N3030) • Corning 384-well TC-treated microplates (cat #3570) • Synthego Engineered Cells Knock-In Clones
(§2) Cells were maintained in IMDM with 10% FBS. Before the assay, cells were diluted with […] growth media (IMDM+1% FBS media) and were seeded in a 384-well plate at a density of 10000 cells/well (for each cell line listed in Table 6). Each compound was prepared as a 10-point 3-fold serial dilution in DMSO with the top dose at a final concentration of 10 μM in the well. Unmodified K562 cells were added at the previously specified density with DMSO to serve as an assay baseline and positive control (PC) and DMSO only with the respective modified cell lines was added to the negative control (NC) columns. Final DMSO concentration was kept at or below 0.25%. Treated cell plates were placed in an incubator at 37° C. with 5% CO2 for 24 hours. After 24 hours, 25 μL of Complete HiBit Lytic reagent was added to each well at room temperature (e.g. one plate requiring 10 mL Lytic Buffer, 100 μL LgBiT Protein, 200 μL Lytic Substrate), shaken for 5 minutes at 600 RPM, then left to sit for 10 minutes for signal to stabilize before reading on a Spark Cyto plate reader (Tecan) with a 500 ms measurement time.
(§3) To determine compound effects on protein abundance of each target in Table 6, the percent response for each respective cell line was calculated at each compound concentration as follows:
(§4) For the normalized response at each concentration, a four-parameter logistical regression was fit to the data and the response was interpolated at the 50% value to determine a concentration for protein abundance at 50% (IC50) the untreated control.

HiBiT-tagged HTT protein = assay: HiBiT protein abundance assay, HTT (K562 HiBiT knock-in cells); assay type: cell-based, human; settings: 24 hours
Experimental: (§5) Compounds described herein were used to screen for effects on quantitative protein abundance using a HiBit assay system (Promega). Quantitative protein abundance was determined by measuring the protein levels of HiBit-tagged protein targets expressed in cell culture via luminescence using the Nano-Glo HiBiT Lytic Detection System, which uses a split complementation assay format to reconstitute NanoBiT enzyme to generate a luminescent signal. A protein abundance assay was developed such that endogenous protein targets could be modified with the HiBiT peptide tag and their abundance could be assessed after compound treatment. Briefly, K562 cell lines containing a HiBiT-modification were treated with various compounds described herein (e.g., compounds of Formulas (I), (II), or (III)). After treatment for 24 hours, the protein abundance of a specific target was determined by measuring luminescence.
as §1, §2, §3, §4

HiBiT-tagged MYB protein = assay: HiBiT protein abundance assay, MYB (K562 HiBiT knock-in cells); assay type: cell-based, human; settings: 24 hours
Experimental: as §5, §1, §2, §3, §4

HTT mRNA [1] = assay: Splicing RT-qPCR assay, HTT canonical (CJ) and alternative (AJ) junction mRNA; assay type: cell-based; settings: Homo sapiens, A673 or K562 cells, 24 hours; for pIC50: decrease in canonical junction mRNA; for AC50: increase in alternative junction mRNA
Experimental: (§6) Compounds described herein were used to modulate RNA transcript abundance in cells. The expression of a target mRNA was measured by detecting the formation of an exon-exon junction in the canonical transcript (CJ). A compound mediated exon-inclusion event was detected by observing an increase in formation of a new junction with an alternative exon (AJ). Real-time qPCR assays were used to detect these splicing switches and interrogate the potency of various compounds towards different target genes. A high-throughput real time quantitative PCR (RT-qPCR) assay was developed to measure these two isoforms of the mRNA (CJ and AJ) for exemplary genes, such as HTT, SMN2, and MYB, together with a control housekeeping gene, GAPDH or GUSB or PPIA, used for normalization. Briefly, the A673 or K562 cell line was treated with various compounds described herein (e.g., compounds of Formula (I), (I), or (III)). After treatment, the levels of the HTT, MYB, or SMN2 mRNA targets were determined from each sample of cell lysate by cDNA synthesis followed by qPCR.
(§7) • Cells-to-CT 1-step kit: ThermoFisher A25602, Cells-to-CT lysis reagent: ThermoFisher 4391851C, TaqMan™ Fast Virus 1-Step Master Mix: ThermoFisher 4444436 • GAPDH: VIC-PL, ThermoFisher 4326317E (Assay: Hs99999905_ml)—used for K562/suspension cell lines • GUSB: VIC-PL, ThermoFisher 4326320E (Assay: Hs99999908_ml)—used for K562/suspension cell lines • PPIA: VIC-PL, ThermoFisher 4326316E (Assay: Hs99999904_ml)—used for A673/adherent cell lines
(§8) The A673 cell line was cultured in DMEM with 10% FBS. Cells were diluted with full growth media and plated in a 96-well plate (15,000 cells in 100 ul media per well). The plate was incubated at 37° C. with 5% CO2 for 24 hours to allow cells to adhere. An 11-point 3-fold serial dilution of the compounds was made in DMSO then diluted in media in an intermediate plate. Compounds were transferred from the intermediate plate to the cell plate with the top dose at a final concentration of 10 uM in the well. Final DMSO concentration was kept at or below 0.25%. The cell plate was returned to the incubator at 37° C. with 5% CO2 for an additional 24 hours.
(§9) The K562 cell line was cultured in IMDM with 10% FBS. For K562, cells were diluted with full growth media and plated in either a 96-well plate (50,000 cells in 50 uL media per well) or a 384-well plate (8,000-40,000 cells in 45 uL media per well). An 11-point 3-fold serial dilution of the compounds were made in DMSO then diluted in media in an intermediate plate. Compound was transferred from the intermediate plate to the cell plate with the top dose at a final concentration of 10 uM in the well. Final DMSO concentration was kept at or below 0.25%. Final volume was 100 uL for 96-well plate and 50 uL for 384-well plate. The cell plate was then placed in an incubator at 37° C. with 5% CO2 for 24 hours.
(§10) The cells were then gently washed with 50 uL-100 uL cold PBS before proceeding to addition of lysis buffer. 30 uL-50 uL of room temperature lysis buffer with DNAse I (and optionally RNAsin) was added to each well. Cells were shaken/mixed thoroughly at room temperature for 5-10 minutes for lysis to take place and then 3 uL-5 uL of room temperature stop solution was added and wells were shaken/mixed again. After 2-5 minutes, the cell lysate plate was transferred to ice for RT-qPCR reaction setup. The lysates could also be frozen at −80° C. for later use.
(§11) In some cases, a direct lysis buffer was used. An appropriate volume of 3×lysis buffer (10 mM Tris, 150 mM NaCl, 1.5%-2.5% Igepal and 0.1-1 U/uL RNAsin, pH 7.4) was directly added to either K562 or A673 cells in media and mixed by pipetting 3 times. The plates were then incubated at room temperature with shaking/rocking for 20-50 minutes to allow for lysis to take place. After this time, the cell lysate plate was transferred to ice to set up for the RT-qPCR reactions. The lysates could also be frozen at −80° C. for later use. […]

MYB mRNA [2] = assay: Splicing RT-qPCR assay, MYB canonical (CJ) and alternative (AJ) junction mRNA; assay type: cell-based; settings: Homo sapiens, A673 or K562 cells, 24 hours; for pIC50: decrease in canonical junction mRNA; for AC50: increase in alternative junction mRNA
Experimental: as §6, §7, §8, §9, §10, §11

MYB mRNA [3] = assay: Gene panel canonical junction qPCR assay, MYB CJ mRNA decrease; assay type: cell-based, human; settings: Homo sapiens, canonical junction qPCR, read-out: MYB IC50 (decrease in CJ mRNA levels)
Outline: (§12)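 A673 or K562 cells were treated with compound, and lysates underwent cDNA synthesis and qPCR with a CY5 5′-nuclease probe or primer spanning the canonical exon junction. ΔCt versus GAPDH, GUSB or PPIA was normalized to DMSO (2^(−ΔΔCt)), converted to percentage response and fitted four-parameter logistic for IC50.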

SMN2 mRNA = assay: Gene panel canonical junction qPCR assay, SMN2 CJ mRNA decrease; assay type: cell-based, human; settings: Homo sapiens, canonical junction qPCR, read-out: SMN2 IC50 (decrease in CJ mRNA levels)
Outline: as §12

Target C mRNA = assay: Gene panel canonical junction qPCR assay, Target C CJ mRNA decrease; assay type: cell-based; settings: Homo sapiens, canonical junction qPCR, read-out: Target C IC50 (decrease in CJ mRNA levels)
Outline: as §12

HTT mRNA [4] = assay: Gene panel canonical junction qPCR assay, HTT CJ mRNA decrease; assay type: cell-based, human; settings: Homo sapiens, canonical junction qPCR, read-out: HTT IC50 (decrease in CJ mRNA levels)
Outline: as §12

K562 cells = assay: Cell Titer Glo 2.0 cell viability assay in K562 cells; settings: 72 hours

Row | Structure (SMILES) | pIC50 (Target C) | pIC50 (HiBiT-tagged HTT protein) | pIC50 (HiBiT-tagged MYB protein) | pIC50 (HTT mRNA [1]) | AC50 (HTT mRNA [1]) | pIC50 (MYB mRNA [2]) | AC50 (MYB mRNA [2]) | pIC50 (MYB mRNA [3]) | pIC50 (SMN2 mRNA) | pIC50 (Target C mRNA) | pIC50 (HTT mRNA [4]) | Viability (K562 cells)
1 | COCCOc1ncc2c(N3CCNCC3)ccc(C(=O)Nc3cc(F)c4nc(C)cn4c3)c2n1 [Compound 180, N-{8-fluoro-2-methylimidazo[1,2-a]pyridin-6-yl}-2-(2-methoxyethoxy)-5-(piperazin-1-yl)quinazoline-8-carboxamide; trifluoroacetic acid] | < 5.00 | < 5.00 | < 5.00 |  |  |  |  |  |  |  |  | 
2 | Cc1cn2cc(NC(=O)c3ccc(N4C[C@@H](C)N[C@@H](C(C)C)C4)c4nccnc34)cc(F)c2n1 [Compound 264, N-{8-fluoro-2-methylimidazo[1,2-a]pyridin-6-yl}-8-[(3S,5R)-3-isopropyl-5-methylpiperazin-1-yl]quinoxaline-5-carboxamide 2,2,2-trifluoroacetate] |  |  |  | < 5.00 | > 10000 nM | 5.00 to 6.00 | 100 to 1000 nM | 5.00 to 6.00 | > 7.00 | < 5.00 | < 5.00 | 
3 | Cc1cn2cc(NC(=O)c3c(F)cc(N4CCNCC4)c4ccnnc34)cc(F)c2n1 [Compound 350] |  |  |  | < 5.00 | > 10000 nM | 5.00 to 6.00 | 1000 to 10000 nM | 5.00 to 6.00 | 6.00 to 7.00 | < 5.00 | < 5.00 | 
4 | Cc1cn2cc(NC(=O)c3ccc([C@H]4C[C@@H](C)N[C@@H](C)C4)c4nccnc34)cc(F)c2n1 [Compound 379] |  |  |  | 5.00 to 6.00 | 1000 to 10000 nM | 6.00 to 7.00 | 100 to 1000 nM | 6.00 to 7.00 | > 7.00 | < 5.00 | 5.00 to 6.00 | B (B represents 100-1000 nM)
5 | Cc1cn2cc(NC(=O)c3ccc([C@@H]4C[C@@H](C)N[C@@H](C)C4)c4nccnc34)cc(F)c2n1 [Compound 380] |  |  |  | 6.00 to 7.00 | 100 to 1000 nM | > 7.00 | < 100 nM | > 7.00 | > 7.00 | 6.00 to 7.00 | 6.00 to 7.00 | B (B represents 100-1000 nM)
6 | COc1nc(NC(=O)c2ccc(N3C[C@H](C)N[C@@H](C)C3)c3nccnc23)cn2cc(C)nc12 [Compound 381] |  |  |  | < 5.00 | > 10000 nM | 6.00 to 7.00 | 100 to 1000 nM | 6.00 to 7.00 | > 7.00 | < 5.00 | < 5.00 | B (B represents 100-1000 nM)
7 | Cc1cn2cc(NC(=O)c3ccc(N4C[C@H](C)N[C@@H](C)C4)c4cccnc34)cc(F)c2n1 [Compound 382] |  |  |  | 5.00 to 6.00 | 1000 to 10000 nM | 6.00 to 7.00 | < 100 nM | 6.00 to 7.00 | > 7.00 | 5.00 to 6.00 | 5.00 to 6.00 | B (B represents 100-1000 nM)
8 | COc1ncc2c(N3C[C@H](C)N[C@@H](C)C3)ccc(C(=O)Nc3cc(F)c4nc(C)cn4c3)c2n1 [Compound 386] |  |  |  | 6.00 to 7.00 | 100 to 1000 nM | > 7.00 | < 100 nM | > 7.00 | > 7.00 | 6.00 to 7.00 | 6.00 to 7.00 | 
